From ChEMBL document CHEMBL3639144, “Glycoside derivatives and uses thereof” (2013)

Columns and labels:
[1] = target: T1, Sodium/glucose cotransporter 2 (Homo sapiens, UniProt P31639); assay: (§1) These cell lines transport 14C-labelled alpha-methyl-glucopyranoside (14C-AMG, Amersham) into the interior of the cell in sodium-dependent manner.The SGLT-2 assay is carried out as follows: CHO-hSGLT2 cells are cultivated in Ham's F12 Medium (BioWhittaker) with 10% foetal calf serum and 250 ug/mL zeocin (Invitrogen), and HEK293-hSGLT2 cells are cultivated in DMEM medium with 10% foetal calf serum and 250 ug/mL zeocin (Invitrogen). The cells are detached from the culture flasks by washing twice with PBS.; assay type: cell-based
T1 sequence (P31639 whole entry): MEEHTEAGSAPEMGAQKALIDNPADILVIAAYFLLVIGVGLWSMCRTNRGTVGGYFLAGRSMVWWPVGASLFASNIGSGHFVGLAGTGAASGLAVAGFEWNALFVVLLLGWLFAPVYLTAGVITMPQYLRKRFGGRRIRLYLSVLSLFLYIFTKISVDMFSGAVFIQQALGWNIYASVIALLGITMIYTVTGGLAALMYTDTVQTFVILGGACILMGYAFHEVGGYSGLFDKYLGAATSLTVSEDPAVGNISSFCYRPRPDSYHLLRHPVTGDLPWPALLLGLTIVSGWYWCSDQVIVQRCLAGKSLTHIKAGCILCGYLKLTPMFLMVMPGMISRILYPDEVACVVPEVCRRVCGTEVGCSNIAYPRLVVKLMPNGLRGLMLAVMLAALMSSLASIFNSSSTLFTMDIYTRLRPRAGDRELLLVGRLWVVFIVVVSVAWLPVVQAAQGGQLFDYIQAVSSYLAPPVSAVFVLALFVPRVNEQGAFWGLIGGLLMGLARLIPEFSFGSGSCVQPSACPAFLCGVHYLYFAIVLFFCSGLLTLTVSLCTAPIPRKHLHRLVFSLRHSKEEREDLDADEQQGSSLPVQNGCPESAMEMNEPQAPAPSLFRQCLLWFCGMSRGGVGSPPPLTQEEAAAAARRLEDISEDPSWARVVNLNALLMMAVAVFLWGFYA

[2] = target: T2, Sodium/glucose cotransporter 1 (Homo sapiens, UniProt P13866); assay: as §1; assay type: cell-based
T2 sequence (P13866 whole entry): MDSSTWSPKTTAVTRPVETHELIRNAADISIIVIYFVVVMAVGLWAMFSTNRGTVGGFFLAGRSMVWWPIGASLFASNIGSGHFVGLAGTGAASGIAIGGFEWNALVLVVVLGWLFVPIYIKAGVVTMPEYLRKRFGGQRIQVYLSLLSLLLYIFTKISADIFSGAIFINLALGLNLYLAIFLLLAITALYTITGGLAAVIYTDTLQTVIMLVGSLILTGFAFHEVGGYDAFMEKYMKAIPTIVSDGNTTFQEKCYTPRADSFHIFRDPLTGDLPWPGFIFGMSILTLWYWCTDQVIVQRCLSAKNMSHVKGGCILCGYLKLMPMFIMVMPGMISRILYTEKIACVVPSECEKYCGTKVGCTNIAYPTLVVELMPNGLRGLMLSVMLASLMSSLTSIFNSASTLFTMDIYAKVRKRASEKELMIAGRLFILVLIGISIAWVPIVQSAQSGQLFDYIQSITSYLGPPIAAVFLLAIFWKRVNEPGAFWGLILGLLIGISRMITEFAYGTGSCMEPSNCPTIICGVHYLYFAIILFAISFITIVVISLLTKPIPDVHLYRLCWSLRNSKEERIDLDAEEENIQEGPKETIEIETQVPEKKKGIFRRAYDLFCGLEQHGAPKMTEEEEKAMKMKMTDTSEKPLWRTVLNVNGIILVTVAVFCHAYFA

| SMILES | IC50 [1] | IC50 [2] |
| --- | --- | --- |
| CCc1ccc([C@@H]2O[C@H](COC(=O)OC(C)(C)C)[C@@H](O)[C@H](O)[C@H]2O)cc1Cc1ccc2c(c1)OCCO2 | 89 nM | 188 nM |
| CCc1ccc([C@@H]2O[C@H](COP(=O)(O)O)[C@@H](O)[C@H](O)[C@H]2O)cc1Cc1ccc2c(c1)OCCO2 | 2.4 nM | 89.3 nM |
